How the values were obtained:
[1] = molecular target: T1, Disintegrin and metalloproteinase domain-containing protein 17 (Homo sapiens, UniProt P78536); assay: Inhibition of recombinant human TACE catalytic domain using Mca-Pro-Leu-Ala-Gln-Ala-Val-Dpa-Arg-Ser-Ser-Ser-Arg-NH2 as substrate after 2 hrs by fluorescence assay
[2] = molecular target: T1, Disintegrin and metalloproteinase domain-containing protein 17; assay: Inhibition of recombinant TACE catalytic domain (unknown origin) using Abz-LAQAVRSSSR-Dpa as substrate preincubated for 10 mins followed by substrate addition measured after 10 mins by FRET assay
[3] = molecular target: Disintegrin and metalloproteinase domain-containing protein 17 (Mus musculus, UniProt Q9Z0F8); assay: Inhibition of TACE in mouse RAW264.7 cells assessed as inhibition of LPS-stimulated TNFalpha production pretreated for 1 hr followed by LPS stimulation for 4 hrs by ELISA; assay type: cell-based
Sequence of Disintegrin and metalloproteinase domain-containing protein 17 (Mus musculus, UniProt Q9Z0F8) (Q9Z0F8 whole entry, the tested form may be a part): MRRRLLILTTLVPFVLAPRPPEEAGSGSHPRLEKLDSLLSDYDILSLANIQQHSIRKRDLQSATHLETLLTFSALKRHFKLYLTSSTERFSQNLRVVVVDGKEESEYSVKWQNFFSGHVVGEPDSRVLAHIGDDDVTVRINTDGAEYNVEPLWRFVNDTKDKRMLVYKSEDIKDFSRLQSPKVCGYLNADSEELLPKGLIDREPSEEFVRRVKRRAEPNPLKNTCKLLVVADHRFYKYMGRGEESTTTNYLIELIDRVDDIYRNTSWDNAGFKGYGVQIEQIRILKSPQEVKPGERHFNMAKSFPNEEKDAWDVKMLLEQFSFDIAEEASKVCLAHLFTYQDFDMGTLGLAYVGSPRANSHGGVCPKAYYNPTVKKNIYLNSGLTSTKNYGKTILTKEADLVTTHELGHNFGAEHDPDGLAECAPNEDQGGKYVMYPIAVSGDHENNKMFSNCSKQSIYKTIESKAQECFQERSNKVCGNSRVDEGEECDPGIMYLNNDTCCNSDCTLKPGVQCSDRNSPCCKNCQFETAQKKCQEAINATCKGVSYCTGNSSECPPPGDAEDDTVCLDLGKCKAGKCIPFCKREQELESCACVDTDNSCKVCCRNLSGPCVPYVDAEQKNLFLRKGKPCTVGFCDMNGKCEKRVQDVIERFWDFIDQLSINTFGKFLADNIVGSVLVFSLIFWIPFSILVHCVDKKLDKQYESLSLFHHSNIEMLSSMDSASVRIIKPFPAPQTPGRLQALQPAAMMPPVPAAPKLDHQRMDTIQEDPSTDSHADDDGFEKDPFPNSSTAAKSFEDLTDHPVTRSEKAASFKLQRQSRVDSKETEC

T1 sequence (P78536 whole entry, the tested form may be a part): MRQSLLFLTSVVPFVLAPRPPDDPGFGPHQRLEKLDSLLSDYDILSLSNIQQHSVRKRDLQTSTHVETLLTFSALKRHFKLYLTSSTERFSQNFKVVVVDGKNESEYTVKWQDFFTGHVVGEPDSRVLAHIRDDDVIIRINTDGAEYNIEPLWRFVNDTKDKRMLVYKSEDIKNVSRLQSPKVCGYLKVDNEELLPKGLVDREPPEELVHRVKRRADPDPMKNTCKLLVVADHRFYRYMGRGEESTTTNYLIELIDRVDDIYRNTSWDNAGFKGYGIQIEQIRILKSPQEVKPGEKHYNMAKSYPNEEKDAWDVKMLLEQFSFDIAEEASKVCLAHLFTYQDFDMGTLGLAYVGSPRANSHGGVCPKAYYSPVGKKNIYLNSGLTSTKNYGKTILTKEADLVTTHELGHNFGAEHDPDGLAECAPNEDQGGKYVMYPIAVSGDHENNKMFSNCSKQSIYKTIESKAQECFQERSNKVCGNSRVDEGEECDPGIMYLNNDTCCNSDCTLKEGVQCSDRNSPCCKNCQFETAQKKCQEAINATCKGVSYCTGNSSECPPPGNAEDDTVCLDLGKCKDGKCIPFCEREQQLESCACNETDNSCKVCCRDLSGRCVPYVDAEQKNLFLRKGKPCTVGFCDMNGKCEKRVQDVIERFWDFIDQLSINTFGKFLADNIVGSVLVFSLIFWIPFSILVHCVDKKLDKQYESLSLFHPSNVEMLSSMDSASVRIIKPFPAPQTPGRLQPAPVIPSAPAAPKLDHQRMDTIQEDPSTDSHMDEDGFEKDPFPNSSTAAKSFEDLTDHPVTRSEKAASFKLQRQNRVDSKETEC

IC50 [1] [nM]	IC50 ([3]; read-out: IC50) [nM]	SMILES	other results
> 10000		CC#CCOc1ccc(S(=O)(=O)[C@H]2C[C@@H](C(=O)NO)N(C(C)=O)C2)cc1	
	38	Cc1cc(COc2ccc(S(=O)(=O)N[C@@H]3CN(C(=O)OC(C)(C)C)C[C@@H]3C(=O)NO)cc2)c2ccccc2n1 (relative stereo)	IC50 ([2]; read-out: IC50): 0.6 nM
	1000	Cc1cc(COc2ccc(S(=O)(=O)N(C)[C@@H]3CCOC[C@@H]3C(=O)NO)cc2)c2ccccc2n1 (relative stereo)	
	1000	C#CCN1CC[C@@H](NS(=O)(=O)c2ccc(OCc3cc(C)nc4ccccc34)cc2)[C@@](C)(C(=O)NO)C1	IC50 ([2]; read-out: pIC50 (converted)): 20 nM
	17	Cc1cc(COc2ccc(S(=O)(=O)N[C@@H]3CCOC[C@@H]3C(=O)NO)cc2)c2ccccc2n1 (relative stereo)	
> 10000		CC(=O)N1C[C@H](S(=O)(=O)c2ccc(OCc3cc(C)nc4c3CCCC4)cc2)C[C@@H]1C(=O)NO	
	58	Cc1cc(COc2ccc(S(=O)(=O)N[C@@H]3CN(C(=O)OC(C)(C)C)CC[C@H]3C(=O)NO)cc2)c2ccccc2n1	IC50 ([2]; read-out: IC50): 0.7 nM
	30	Cc1cc(COc2ccc(S(=O)(=O)N[C@H]3CCN(C(=O)NC(C)(C)C)C[C@H]3C(=O)NO)cc2)c2ccccc2n1 (relative stereo)	IC50 ([2]; read-out: IC50): 0.6 nM
16		CCC1(C(=O)NO)CCN(S(=O)(=O)c2ccc(OCc3cc(C)nc4ccccc34)cc2)C1 (stereo not given)	
	762	Cc1cc(COc2ccc(S(=O)(=O)N[C@@H]3CCN(S(=O)(=O)C(C)C)C[C@]3(C)C(=O)NO)cc2)c2ccccc2n1	IC50 ([2]; read-out: pIC50 (converted)): 2.51 nM
	180	Cc1cc(COc2ccc(S(=O)(=O)NC3CCN(CCO)CC3C(=O)NO)cc2)c2ccccc2n1 (stereo not given)	IC50 ([2]; read-out: pIC50 (converted)): 3.16 nM
	1000	Cc1cc(COc2ccc(S(=O)(=O)N(C)[C@@H]3CC=CC[C@@H]3C(=O)NO)cc2)c2ccccc2n1 (relative stereo)	
	202	CC(=O)N1CCC(C(=O)NO)C(NS(=O)(=O)c2ccc(OCc3cc(C)nc4ccccc34)cc2)C1 (stereo not given)	IC50 ([2]; read-out: pIC50 (converted)): 1.26 nM
	20	Cc1cc(COc2ccc(S(=O)(=O)N[C@@H]3CN(C=O)C[C@@H]3C(=O)NO)cc2)c2ccccc2n1 (relative stereo)	
	90	C#CCN1C[C@H](C(=O)NO)[C@H](NS(=O)(=O)c2ccc(OCc3cc(C)nc4ccccc34)cc2)C1 (relative stereo)	
71		Cc1cc(COc2ccc(S(=O)(=O)N3CCCOC(C(=O)NO)C3)cc2)c2ccccc2n1 (stereo not given)	
200		CC(=O)N1CCCN(S(=O)(=O)c2ccc(OCc3cc(C)nc4ccccc34)cc2)CC1C(=O)NO (stereo not given)	
	21	Cc1cc(COc2ccc(S(=O)(=O)N[C@@H]3CN(C=O)CCC3C(=O)NO)cc2)c2ccccc2n1 (stereo not given in full)	
	7	Cc1cc(COc2ccc(S(=O)(=O)N[C@@H]3CCN(C=O)C[C@@H]3C(=O)NO)cc2)c2ccccc2n1	
1500		CC#CCOc1ccc(S(=O)(=O)N2CCN(C(C)=O)C(C(=O)NO)C2)cc1 (stereo not given)	
> 10000		CC#CCOc1ccc(S(=O)(=O)[C@@H]2C[C@H](C(=O)NO)N(C(C)=O)C2)cc1	
	250	Cc1cc(COc2ccc(S(=O)(=O)N(C)C3C(C(=O)NO)[C@@H]4CC[C@H]3O4)cc2)c2ccccc2n1 (relative stereo; form 1)	IC50 ([2]; read-out: IC50): 43 nM
	10	Cc1cc(COc2ccc(S(=O)(=O)N(C)[C@H]3[C@@H](C(=O)NO)[C@@H]4CC[C@H]3O4)cc2)c2ccccc2n1	IC50 ([2]; read-out: pIC50 (converted)): 1 nM
	1670	Cc1cc(COc2ccc(S(=O)(=O)N[C@@H]3CCOC[C@]3(C)C(=O)NO)cc2)c2ccccc2n1	
	82	Cc1cc(COc2ccc(S(=O)(=O)N[C@@H]3CCC[C@]3(O)C(=O)NO)cc2)c2ccccc2n1	
	12	Cc1cc(COc2ccc(S(=O)(=O)N[C@@H]3COC[C@@H]3C(=O)NO)cc2)c2ccccc2n1	IC50 ([2]; read-out: pIC50 (converted)): 0.631 nM

IC50 [1] [nM]	IC50 ([3]; read-out: IC50) [nM]	SMILES	other results
	9 to 11	Cc1cc(COc2ccc(S(=O)(=O)N[C@@H]3CCC[C@@H]3C(=O)NO)cc2)c2ccccc2n1 (relative stereo)	IC50 ([2]; read-out: pIC50 (converted)): 0.631 nM; IC50 ([3]; read-out: pIC50 (converted)): 10 nM
	930	Cc1cc(COc2ccc(S(=O)(=O)N(C)[C@@H]3COC[C@@H]3C(=O)NO)cc2)c2ccccc2n1 (relative stereo)	IC50 ([2]; read-out: pIC50 (converted)): 1.26 nM
	18	Cc1cc(COc2ccc(S(=O)(=O)N(C)C3C(C(=O)NO)[C@@H]4CC[C@H]3O4)cc2)c2ccccc2n1 (relative stereo; form 2)	IC50 ([2]; read-out: IC50): 2 nM
	160	Cc1cc(COc2ccc(S(=O)(=O)N[C@@H]3CCN(C=O)C[C@]3(O)C(=O)NO)cc2)c2ccccc2n1	IC50 ([2]; read-out: pIC50 (converted)): 1.26 nM
	93	Cc1cc(COc2ccc(S(=O)(=O)N(C)[C@@H]3CCC[C@@H]3C(=O)NO)cc2)c2ccccc2n1 (relative stereo)	IC50 ([2]; read-out: IC50): 0.6 nM
	52	Cc1cc(COc2ccc(S(=O)(=O)N(C)[C@@H]3[C@@H]4CC[C@@H](C4)[C@@H]3C(=O)NO)cc2)c2ccccc2n1	IC50 ([2]; read-out: pIC50 (converted)): 1 nM
	911	Cc1cc(COc2ccc(S(=O)(=O)N(C)[C@H]3CCCC[C@@H]3C(=O)NO)cc2)c2ccccc2n1 (relative stereo)	IC50 ([2]; read-out: IC50): 1.4 nM
760		CC(=O)N1CCN(C(=O)c2ccc(OCc3cc(C)nc4c3CCCC4)cc2)CC1C(=O)NO (stereo not given)	
	19	Cc1cc(COc2ccc(S(=O)(=O)N[C@@H]3CCC[C@]3(F)C(=O)NO)cc2)c2ccccc2n1	IC50 ([2]; read-out: IC50): 0.6 nM
30		CC(=O)N1CCN(S(=O)(=O)c2ccc(OCc3cc(C)nc4c3CCCC4)cc2)CC1(C)C(=O)NO (stereo not given)	
	90	Cc1cc(COc2ccc(S(=O)(=O)N[C@@H]3CNC[C@@H]3C(=O)NO)cc2)c2ccccc2n1 (relative stereo)	IC50 ([2]; read-out: IC50): 4.7 nM
3600		CC(=O)N1C[C@H](S(=O)(=O)c2ccc(OCc3cc(C)nc4c3CCCC4)cc2)C[C@H]1C(=O)NO	
	20	CC(=O)N1CCC(NS(=O)(=O)c2ccc(OCc3cc(C)nc4ccccc34)cc2)C(C(=O)NO)C1 (stereo not given)	IC50 ([2]; read-out: pIC50 (converted)): 1 nM
180		Cc1cc(COc2ccc(S(=O)(=O)N3CCOC(C(=O)NO)C3)cc2)c2ccccc2n1 (stereo not given)	
40		Cc1cc(COc2ccc(S(=O)(=O)N3CCCC(C)(C(=O)NO)C3)cc2)c2c(n1)CCCC2 (stereo not given)	
	460	Cc1cc(COc2ccc(S(=O)(=O)N[C@@H]3CCN(C(=O)OC(C)(C)C)C[C@@H]3C(=O)NO)cc2)c2ccccc2n1	IC50 ([2]; read-out: IC50): 0.5 nM
> 10000		CC#CCOc1ccc(S(=O)(=O)N2CCC(C(=O)NO)C2)cc1 (stereo not given)	
10000		CC#CCOc1ccc(S(=O)(=O)[C@@H]2C[C@@H](C(=O)NO)N(C(C)=O)C2)cc1	
> 10000		CC#CCOc1ccc(S(=O)(=O)[C@H]2C[C@H](C(=O)NO)N(C(C)=O)C2)cc1	
35		Cc1cc(COc2ccc(S(=O)(=O)N3CCC(CC(C)C)(C(=O)NO)C3)cc2)c2ccccc2n1 (stereo not given)	
> 10000		CC(=O)N1C[C@@H](S(=O)(=O)c2ccc(OCc3cc(C)nc4c3CCCC4)cc2)C[C@@H]1C(=O)NO	
6500		Cc1cc(COc2ccc(C(=O)N3CCC(C(=O)NO)C3)cc2)c2c(n1)CCCC2 (stereo not given)	
> 10000		CC#CCOc1ccc(C(=O)N2CCC(C(=O)NO)C2)cc1 (stereo not given)	
42		Cc1cc(COc2ccc(S(=O)(=O)N3CCC(Cc4ccccc4)(C(=O)NO)C3)cc2)c2ccccc2n1 (stereo not given)	
110		Cc1cc(COc2ccc(S(=O)(=O)N3CCNC(C(=O)NO)C3)cc2)c2c(n1)CCCC2 (stereo not given)	

SMILES	IC50 [1] [nM]	IC50 ([3]; read-out: IC50) [nM]	other results
Cc1cc(COc2ccc(S(=O)(=O)N(C)[C@@H]3CCC[C@]3(CO)C(=O)NO)cc2)c2ccccc2n1		440	IC50 ([2]; read-out: IC50): 0.6 nM

Source: ChEMBL document CHEMBL4007472, “Identification of novel TACE inhibitors compatible with topical application” (Bioorg Med Chem Lett, 2017)
